The structures appear in SMILES notation.

Chain of KRas G12C (P01116 1-188 isoform P01116-2 G12C): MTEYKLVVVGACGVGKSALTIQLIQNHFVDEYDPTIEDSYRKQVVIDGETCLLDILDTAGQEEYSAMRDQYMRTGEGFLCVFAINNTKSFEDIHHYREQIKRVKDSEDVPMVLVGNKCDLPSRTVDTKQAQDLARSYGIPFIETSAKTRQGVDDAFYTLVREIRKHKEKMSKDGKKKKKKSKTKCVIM

For this test, the target named is KRas G12C (Homo sapiens, UniProt P01116, G12C). In words: Cellular inhibition of KRas G12C measured by Phospho-ERK in NCI-H358 cells. The class given is cell-based. The conditions noted are these: pERK(Thr202/Tyr204) normalized with GAPDH, NCI-H358 cells, 3 hours; read-out: IC50. The essentials:
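NCI-H358 cells treated 3 h with compound (0.5% DMSO final), then fixed and methanol-permeabilised. In-cell immunofluorescence measured pERK(Thr202/Tyr204) normalised to GAPDH as percent of DMSO control. IC50 from a 4-parameter dose-response fit.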
With `C=CC(=O)N1CCN(c2nc(OC[C@@H]3CCCN3C)nc3c2CCN(c2cccc4cccnc24)C3)CC1CC#N` (stereo partly drawn) [Example 247, 2-(1-acryloyl-4-(2-(((S)-1-methylpyrrolidin-2-yl)methoxy)-7-(quinolin-8-yl)-5,6,7,8-tetrahydropyrido[3,4-d]pyrimidin-4-yl)piperazin-2-yl)acetonitrile], the IC50 was greater than 1000 nM.

With `C=CC(=O)N1CCN(c2ncnc3c2CCN(c2cncc4ccccc24)C3)CC1` [Example 69, 1-(4-(7-(isoquinolin-4-yl)-5,6,7,8-tetrahydropyrido[3,4-d]pyrimidin-4-yl)piperazin-1-yl)prop-2-en-1-one], the IC50 is greater than 1000 nM.

For the compound `C=CC(=O)N1CC2(C1)CN(c1nc(OCCN(C)C)nc3c1CCN(c1cc(O)cc4ccccc14)C3)C2` [Example 16, 1-(6-(2-(2-(dimethylamino)ethoxy)-7-(3-hydroxynaphthalen-1-yl)-5,6,7,8-tetrahydropyrido[3,4-d]pyrimidin-4-yl)-2,6-diazaspiro[3.3]heptan-2-yl)prop-2-en-1-one], the IC50 is greater than 1000 nM.

As to `C=CC(=O)N1CCN(c2nc(NC3CCN(C4CC4)CC3)nc3c2CCN(c2cc(O)cc4ccccc24)C3)CC1` [Example 204, 1-(4-(2-((1-cyclopropylpiperidin-4-yl)amino)-7-(3-hydroxynaphthalen-1-yl)-5,6,7,8-tetrahydropyrido[3,4-d]pyrimidin-4-yl)piperazin-1-yl)prop-2-en-1-one], the IC50 was greater than 1000 nM.

In the case of `C=CC(=O)N1CCN(c2nc(OC[C@@H]3C[C@@H](OC)CN3C)nc3c2CCN(c2cc(OC)cc4ccccc24)C3)CC1` [Example 356, 1-[4-[2-[[(2S,4R)-4-methoxy-1-methyl-pyrrolidin-2-yl]methoxy]-7-(3-methoxy-1-naphthyl)-6,8-dihydro-5H-pyrido[3,4-d]pyrimidin-4-yl]piperazin-1-yl]prop-2-en-1-one], the IC50 was greater than 1000 nM.

`C=CC(=O)N1CCN(c2nc(OC[C@H](O)CN3CCOCC3)nc3c2CCN(c2cc(O)cc4ccccc24)C3)CC1` (single isomer, unassigned) [Example 215]: the IC50 is greater than 1000 nM.

Regarding `C=CC(=O)N1CCN(c2nc(OC[C@@H]3CCCN3C)nc3c2CCN(c2nccc4ccccc24)C3)CC1CC#N` (stereo partly drawn) [Example 258, 2-[4-[7-(1-isoquinolyl)-2-[[(2S)-1-methylpyrrolidin-2-yl]methoxy]-6,8-dihydro-5H-pyrido[3,4-d]pyrimidin-4-yl]-1-prop-2-enoyl-piperazin-2-yl]acetonitrile], the IC50 is greater than 1000 nM.

As to `C=CC(=O)N1CC2(C1)CN(c1nc(OCCCN(C)C)nc3c1CCN(c1cc(O)cc4ccccc14)C3)C2` [Example 20, 1-(6-(2-(3-(dimethylamino)propoxy)-7-(3-hydroxynaphthalen-1-yl)-5,6,7,8-tetrahydropyrido[3,4-d]pyrimidin-4-yl)-2,6-diazaspiro[3.3]heptan-2-yl)prop-2-en-1-one], the IC50 was greater than 1000 nM.

Take `C=CC(=O)N1CCN(c2nc(OC[C@@H]3CCCN3C)nc3c2CCN(c2cc(O)cc4ccccc24)C3)[C@@H](C)C1` [Example 202, 1-((S)-4-(7-(3-hydroxynaphthalen-1-yl)-2-(((S)-1-methylpyrrolidin-2-yl)methoxy)-5,6,7,8-tetrahydropyrido[3,4-d]pyrimidin-4-yl)-3-methylpiperazin-1-yl)prop-2-en-1-one]: the IC50 lay in the range of 0.1 to 1000 nM.

Consider `CN(C)C/C=C(/F)C(=O)N1CCN(c2nc(OC[C@@H]3CCCN3C)nc3c2CCN(c2cccc4cccc(Cl)c24)C3)C[C@@H]1CC#N` [Example 503, 2-[(2S)-4-[7-(8-chloro-1-naphthyl)-2-[[(2S)-1-methylpyrrolidin-2-yl]methoxy]-6,8-dihydro-5H-pyrido[3,4-d]pyrimidin-4-yl]-1-[(E)-4-(dimethylamino)-2-fluoro-but-2-enoyl]piperazin-2-yl]acetonitrile], for which the IC50 was greater than 1000 nM.

For the compound `C=C(CO)C(=O)N1CCN(c2nc(OC[C@@H]3CCCN3C)nc3c2CCN(c2cccc(C)c2C)C3)C[C@@H]1CC#N` [Example 488, 2-((S)-4-(7-(2,3-dimethylphenyl)-2-(((S)-1-methylpyrrolidin-2-yl)methoxy)-5,6,7,8-tetrahydropyrido[3,4-d]pyrimidin-4-yl)-1-(2-(hydroxymethyl)acryloyl)piperazin-2-yl)acetonitrile], the IC50 was greater than 1000 nM.

On to `C=CC(=O)N1CCN(c2nc(OC[C@@H]3CCCN3C)nc3c2CCN(c2ccccc2CC(F)(F)F)C3)CC1CC#N` (stereo partly drawn) [Example 240, 2-(1-acryloyl-4-(2-(((S)-1-methylpyrrolidin-2-yl)methoxy)-7-(2-(2,2,2-trifluoroethyl)phenyl)-5,6,7,8-tetrahydropyrido[3,4-d]pyrimidin-4-yl)piperazin-2-yl)acetonitrile], for which the IC50 was greater than 1000 nM.

On to `C=CC(=O)N1CCN(c2nc(OC[C@@H]3C[C@@H](F)CN3C)nc3c2CCN(c2cccc(C)c2C)C3)C[C@@H]1CC#N` [Example 437, 2-((S)-1-acryloyl-4-(7-(2,3-dimethylphenyl)-2-(((2S,4R)-4-fluoro-1-methylpyrrolidin-2-yl)methoxy)-5,6,7,8-tetrahydropyrido[3,4-d]pyrimidin-4-yl)piperazin-2-yl)acetonitrile], for which the IC50 lay in the range of 0.1 to 1000 nM.

With `C=CC(=O)N1CCN(c2nc(OCCN3CCOCC3)nc3c2CCN(c2cc(O)cc4ccccc24)C3)CC1` [Example 117, 1-(4-(7-(3-hydroxynaphthalen-1-yl)-2-(2-morpholinoethoxy)-5,6,7,8-tetrahydropyrido[3,4-d]pyrimidin-4-yl)piperazin-1-yl)prop-2-en-1-one], the IC50 is greater than 1000 nM.

With `C=CC(=O)N1CCN(c2nc(OC[C@@H]3CCCN3C)nc3c2CCN(c2ccc(F)c4ccccc24)C3)CC1CC#N` (stereo partly drawn) [Example 246, 2-[4-[7-(4-fluoro-1-naphthyl)-2-[[(2S)-1-methylpyrrolidin-2-yl]methoxy]-6,8-dihydro-5H-pyrido[3,4-d]pyrimidin-4-yl]-1-prop-2-enoyl-piperazin-2-yl] acetonitrile], the IC50 fell in the range of 0.1 to 1000 nM.

Turning to `C=CC(=O)N1CCN(c2nc(OC[C@@H]3C[C@@H](F)CN3C)nc3c2CCN(c2cc(OC)cc4ccccc24)C3)CC1` [Example 355, 1-[4-[2-[[(2S,4R)-4-fluoro-1-methyl-pyrrolidin-2-yl]methoxy]-7-(3-methoxy-1-naphthyl)-6,8-dihydro-5H-pyrido[3,4-d]pyrimidin-4-yl]piperazin-1-yl]prop-2-en-1-one], the half-maximal inhibitory concentration (IC50) is greater than 1000 nM.

For the compound `C=CC(=O)N1CCN(c2nc(O[C@H](C)[C@H]3CCCN3C)nc3c2CCN(c2cc(O)cc4ccccc24)C3)C[C@@H]1CC#N` [Example 348, 2-[(2S)-4-[7-(3-hydroxy-1-naphthyl)-2-[(1R)-1-[(2R)-1-methylpyrrolidin-2-yl]ethoxy]-6,8-dihydro-5H-pyrido[3,4-d]pyrimidin-4-yl]-1-prop-2-enoyl-piperazin-2-yl]acetonitrile], the IC50 lay within 0.1 to 1000 nM.

For `C=CC(=O)N1CCN(c2nc(OC(C)CCN3CCOCC3)nc3c2CCN(c2cc(O)cc4ccccc24)C3)CC1` (stereo not drawn) [Example 93, 1-(4-(7-(3-hydroxynaphthalen-1-yl)-2-((4-morpholinobutan-2-yl)oxy)-5,6,7,8-tetrahydropyrido[3,4-d]pyrimidin-4-yl)piperazin-1-yl)prop-2-en-1-one], the IC50 is greater than 1000 nM.
